The test system of the test is rabbits. Briefly: Serum antibody titre by ELISA against the corresponding synthetic peptide antigen, before and after the 10 week immunisation of rabbits. It counts as in vivo, rabbit. The note with it: for Titre: (Serum Dilution) Post Immunization R1: rabbit R1, after 10 week immunisation protocol, 200 μg peptide conjugate per inoculation; for Titre: (Serum Dilution) Pre Immunization R1: rabbit R1, pre immunization serum, ELISA with synthetic peptide antigen; for antigenic response: rabbits R1 and R2, summary of Table 6. The text has this:
To each N-terminal end of the synthetic peptides, L-cysteine was attached, and the peptide was formed into a ring so that the cysteine group lay between the N-terminal and the C-terminal ends of the synthetic peptide. This facilitated peptide conjugation with Keyhole Hemolymph (KHL). The shorter peptides (i.e. those containing 9 or fewer amino acids) were artificially elongated with biologically inert amino acids prior to attaching the L-cysteine. This was done in order to facilitate annealing and increase the antigenicity of the shorter peptides.
For immunisation, two young adult rabbits (5-6 months old, weighing 5-6 lbs [2.3-2.7 kg]) were used. Each antigen (i.e., each synthetic peptide) was given subcutaneously and intramuscularly in 0.1 ml injections at ten different sites. The protocol used followed the following sequence:
The level of antibodies in the serum was established by ELISA (enzyme-linked immunosorbent assay) with the corresponding synthetic peptide antigen. This technique involved the following steps: • 1. The antigen was diluted with a 0.1 M bicarbonate buffer (pH 9.0) to yield a 10 μg of antigen/ml solution. A volume of 50 μl of this solution was placed into each microwell of a 96 well plate. • 2. The plates were covered and incubated at 37° C. for 3 hours. • 3. The wells were washed with a coupling buffer and blocked using 200 μl of Pierce standard solution of BSA (bovine serum albumin). • 4. 50 μl of dilutent BSA (0.75% soln.) was pipetted into each well. 50 μl of antibody serum sample diluted 1:100 in dilutent BSA were placed in lane A of each row. • 5. 1:2 serial dilutions were performed moving down the plate. • 6. The plates were covered and incubated at room temperature for 60 minutes. • 7. The plates were washed four times with PBS wash solution. • 8. A volume of 50 μl of goat anti-rabbit IgG (H&L) HRP conjugate at 1:1000 dilution in BSA was pipetted into each well and incubated at room temperature for 60 minutes (H&L=heavy and light chain; HRP=horseradish peroxidase). • 9. The plates were washed four times with PBS wash solution. • 10. A volume of 50 μl of substrate solution 2,2′-azino-bis(3-ethylbenzothiazoline-6-sulfonic acid)-diammonium salt (ABTS available from Pierce, which is used to help visualise the extent of the antibody/antigen reaction) was pipetted into each well and incubated at room temperature for about 2 minutes. • 11. The reaction was stopped by adding 50 μl of 1% SDS (sodium dodecyl sulfate) into each well. • 12. The wells were then read on a dynoplate reader at 405.
The data presented in Table 6 show the serum antibody titers against specific antibodies after the 10 week immunisation protocol.
In general terms: ELISA stands for enzyme-linked immunosorbent assay.

For the substance “DPPPPQS [Peptide A-7, Colostrinin peptide of unknown precursor]”, the “Titre: (Serum Dilution) Post Immunization R1” value turned out to be 3400, the “Titre: (Serum Dilution) Pre Immunization R1” value is given as 0 and the antigenic response entry was “significantly lower than expected”.
For the substance “DQPPDVEKPDLQPFQVQS [Peptide B-10, Colostrinin peptide (possibly) having β-casein homologue precursor]”, the “Titre: (Serum Dilution) Post Immunization R1” value was determined as 12800 and the “Titre: (Serum Dilution) Pre Immunization R1” value stood at 0.
As to “LFFFLPVVNVLP [Peptide B-8, Colostrinin peptide (possibly) having β-casein homologue precursor]”, the “Titre: (Serum Dilution) Post Immunization R1” value was determined as 200, the “Titre: (Serum Dilution) Pre Immunization R1” value is recorded as 0 and the antigenic response result is given as “significantly lower than expected”.
Regarding “DLEMPVLPVEPFPFV [Peptide B-7, Colostrinin peptide (possibly) having β-casein homologue precursor]”, the “Titre: (Serum Dilution) Post Immunization R1” value was 25600 and the “Titre: (Serum Dilution) Pre Immunization R1” value worked out at 0.
The corresponding values for DSQPPV [Peptide B-4] are 25600 and 0.
Regarding SEQP [Peptide A-5], the “Titre: (Serum Dilution) Post Immunization R1” value is on record as 3200 and the “Titre: (Serum Dilution) Pre Immunization R1” value was 0.
For the substance “KYKLQPE [Peptide B-2, Colostrinin peptide (possibly) having β-casein homologue precursor]”, the “Titre: (Serum Dilution) Post Immunization R1” value worked out at 25600 and the “Titre: (Serum Dilution) Pre Immunization R1” value is 0.
Regarding “VLEMKFPPPPQETVT [Peptide A-3, Colostrinin peptide of unknown precursor]”, the “Titre: (Serum Dilution) Post Immunization R1” value was 6400 and the “Titre: (Serum Dilution) Pre Immunization R1” value was 0.
For “ATFNRYQDDHGEEILKSL [Peptide D-1, annexin precursor peptide, Annexin Position 203-220]”, in that order: 12800 and 0.
For SEEMP [Peptide B-3], in that order: 25600 and 0.
Turning to “LQTPQPLLQVMMEPQGD [Peptide A-1, Colostrinin peptide of unknown precursor]”, the “Titre: (Serum Dilution) Post Immunization R1” value is listed as 6400, the “Titre: (Serum Dilution) Pre Immunization R1” value is given as 0 and the antigenic response entry is “significantly lower than expected”.
On to VVMEV [Peptide B-6], for which the “Titre: (Serum Dilution) Post Immunization R1” value was 25600 and the “Titre: (Serum Dilution) Pre Immunization R1” value stood at 0.
The corresponding values for FPPPK [Peptide B-5] are 12800 and 0.
On to “VLPPNVG [Peptide B-1, Colostrinin peptide (possibly) having β-casein homologue precursor]”, for which the “Titre: (Serum Dilution) Post Immunization R1” value turned out to be 26500 and the “Titre: (Serum Dilution) Pre Immunization R1” value was determined as 0.
On to “LKPFPKLKVEVFPFP [Peptide A-4, Colostrinin peptide of unknown precursor]”, for which the “Titre: (Serum Dilution) Post Immunization R1” value stood at 6400 and the “Titre: (Serum Dilution) Pre Immunization R1” value is given as 0.
The corresponding values for “MQPPPLP [Peptide B-9, Colostrinin peptide (possibly) having β-casein homologue precursor]” are 3200 and 0.
As to “AFLLYQE [Peptide C-12, β-casein precursor peptide, Casein Position 202-208]”, the “Titre: (Serum Dilution) Post Immunization R1” value worked out at 12800.
For “MPQNFYKLPQM [Peptide A-2, Colostrinin peptide of unknown precursor]”, the “Titre: (Serum Dilution) Post Immunization R1” value worked out at 6400 and the “Titre: (Serum Dilution) Pre Immunization R1” value was 0.

The values above are taken from US20060154871A1, “Peptides” (ReGen Therapeutics PIc, priority 1999, published 2006).
